Source: BigSolDB 2.1

Q: With `CC(C)C(=O)Nc1ccc([N+](=O)[O-])c(C(F)(F)F)c1` as the compound, how does the solubility (mole fraction) (in 2-ethoxyethanol, 278.15 K) read?
A: Its solubility (mole fraction) is 0.132.

Q: And the solubility (mole fraction) (in 2-ethoxyethanol, 283.15 K)?
A: Its solubility (mole fraction) is 0.142.

Q: What about the solubility (mole fraction) (in 2-ethoxyethanol, 288.15 K) of the same compound?
A: Its solubility (mole fraction) is 0.153.

Q: And the solubility (mole fraction) (in 2-ethoxyethanol, 293.15 K)?
A: Its solubility (mole fraction) is 0.164.

Q: What about the solubility (mole fraction) (in 2-ethoxyethanol, 298.15 K) of the same compound?
A: Its solubility (mole fraction) is 0.176.

Q: What about the solubility (mole fraction) (in 2-ethoxyethanol, 303.15 K) of the same compound?
A: The solubility (mole fraction) was 0.19.

Q: And the solubility (mole fraction) (in 2-ethoxyethanol, 308.15 K)?
A: Its solubility (mole fraction) is 0.204.

Q: And the solubility (mole fraction) (in 2-ethoxyethanol, 313.15 K)?
A: Its solubility (mole fraction) is 0.22.

Q: And the solubility (mole fraction) (in 2-ethoxyethanol, 318.15 K)?
A: The solubility (mole fraction) was 0.237.

Q: What about the solubility (mole fraction) (in 2-ethoxyethanol, 323.15 K) of the same compound?
A: Its solubility (mole fraction) is 0.258.

Q: What about the solubility (mole fraction) (in 2-methoxyethanol, 278.15 K) of the same compound?
A: The solubility (mole fraction) was 0.121.

Q: What about the solubility (mole fraction) (in 2-methoxyethanol, 283.15 K) of the same compound?
A: The solubility (mole fraction) was 0.13.

Q: And the solubility (mole fraction) (in 2-methoxyethanol, 288.15 K)?
A: Its solubility (mole fraction) is 0.142.

Q: And the solubility (mole fraction) (in 2-methoxyethanol, 293.15 K)?
A: The solubility (mole fraction) was 0.153.

Q: And the solubility (mole fraction) (in 2-methoxyethanol, 298.15 K)?
A: The solubility (mole fraction) was 0.166.

Q: And the solubility (mole fraction) (in 2-methoxyethanol, 303.15 K)?
A: Its solubility (mole fraction) is 0.18.

Q: And the solubility (mole fraction) (in 2-methoxyethanol, 308.15 K)?
A: The solubility (mole fraction) was 0.195.

Q: And the solubility (mole fraction) (in 2-methoxyethanol, 313.15 K)?
A: The solubility (mole fraction) was 0.212.

Q: And the solubility (mole fraction) (in 2-methoxyethanol, 318.15 K)?
A: The solubility (mole fraction) was 0.229.

Q: And the solubility (mole fraction) (in 2-methoxyethanol, 323.15 K)?
A: Its solubility (mole fraction) is 0.25.

Q: What about the solubility (mole fraction) (in DMF, 278.15 K) of the same compound?
A: Its solubility (mole fraction) is 0.382.

Q: What about the solubility (mole fraction) (in DMF, 283.15 K) of the same compound?
A: Its solubility (mole fraction) is 0.391.

Q: And the solubility (mole fraction) (in DMF, 288.15 K)?
A: The solubility (mole fraction) was 0.401.

Q: And the solubility (mole fraction) (in DMF, 293.15 K)?
A: Its solubility (mole fraction) is 0.41.

Q: What about the solubility (mole fraction) (in DMF, 298.15 K) of the same compound?
A: The solubility (mole fraction) was 0.421.

Q: What about the solubility (mole fraction) (in DMF, 303.15 K) of the same compound?
A: Its solubility (mole fraction) is 0.433.

Q: What about the solubility (mole fraction) (in DMF, 308.15 K) of the same compound?
A: Its solubility (mole fraction) is 0.447.

Q: What about the solubility (mole fraction) (in DMF, 313.15 K) of the same compound?
A: The solubility (mole fraction) was 0.462.

Q: And the solubility (mole fraction) (in DMF, 318.15 K)?
A: The solubility (mole fraction) was 0.476.

Q: And the solubility (mole fraction) (in DMF, 323.15 K)?
A: Its solubility (mole fraction) is 0.494.

Q: And the solubility (mole fraction) (in DMSO, 293.15 K)?
A: The solubility (mole fraction) was 0.433.

Q: And the solubility (mole fraction) (in DMSO, 298.15 K)?
A: Its solubility (mole fraction) is 0.443.

Q: What about the solubility (mole fraction) (in DMSO, 303.15 K) of the same compound?
A: The solubility (mole fraction) was 0.455.

Q: And the solubility (mole fraction) (in DMSO, 308.15 K)?
A: The solubility (mole fraction) was 0.469.

Q: What about the solubility (mole fraction) (in DMSO, 313.15 K) of the same compound?
A: The solubility (mole fraction) was 0.481.

Q: And the solubility (mole fraction) (in DMSO, 318.15 K)?
A: Its solubility (mole fraction) is 0.496.

Q: And the solubility (mole fraction) (in DMSO, 323.15 K)?
A: The solubility (mole fraction) was 0.512.

Q: What about the solubility (mole fraction) (in acetone, 278.15 K) of the same compound?
A: Its solubility (mole fraction) is 0.162.

Q: And the solubility (mole fraction) (in acetone, 283.15 K)?
A: Its solubility (mole fraction) is 0.173.

Q: What about the solubility (mole fraction) (in acetone, 288.15 K) of the same compound?
A: The solubility (mole fraction) was 0.185.

Q: What about the solubility (mole fraction) (in acetone, 293.15 K) of the same compound?
A: Its solubility (mole fraction) is 0.196.

Q: And the solubility (mole fraction) (in acetone, 298.15 K)?
A: The solubility (mole fraction) was 0.209.

Q: What about the solubility (mole fraction) (in acetone, 303.15 K) of the same compound?
A: The solubility (mole fraction) was 0.223.

Q: And the solubility (mole fraction) (in acetone, 308.15 K)?
A: The solubility (mole fraction) was 0.238.

Q: And the solubility (mole fraction) (in acetone, 313.15 K)?
A: Its solubility (mole fraction) is 0.255.

Q: And the solubility (mole fraction) (in acetone, 318.15 K)?
A: The solubility (mole fraction) was 0.273.

Q: What about the solubility (mole fraction) (in acetone, 323.15 K) of the same compound?
A: Its solubility (mole fraction) is 0.293.

Q: And the solubility (mole fraction) (in dichloromethane, 278.15 K)?
A: The solubility (mole fraction) was 0.00732.

Q: And the solubility (mole fraction) (in dichloromethane, 283.15 K)?
A: Its solubility (mole fraction) is 0.00924.

Q: And the solubility (mole fraction) (in dichloromethane, 288.15 K)?
A: The solubility (mole fraction) was 0.0117.

Q: And the solubility (mole fraction) (in dichloromethane, 293.15 K)?
A: Its solubility (mole fraction) is 0.0143.

Q: And the solubility (mole fraction) (in dichloromethane, 298.15 K)?
A: Its solubility (mole fraction) is 0.0182.

Q: And the solubility (mole fraction) (in dichloromethane, 303.15 K)?
A: Its solubility (mole fraction) is 0.0223.

Q: What about the solubility (mole fraction) (in dichloromethane, 308.15 K) of the same compound?
A: The solubility (mole fraction) was 0.0273.

Q: And the solubility (mole fraction) (in ethanol, 278.15 K)?
A: The solubility (mole fraction) was 0.0336.

Q: And the solubility (mole fraction) (in ethanol, 283.15 K)?
A: Its solubility (mole fraction) is 0.0406.

Q: And the solubility (mole fraction) (in ethanol, 288.15 K)?
A: Its solubility (mole fraction) is 0.0503.

Q: And the solubility (mole fraction) (in ethanol, 293.15 K)?
A: The solubility (mole fraction) was 0.0586.

Q: What about the solubility (mole fraction) (in ethanol, 298.15 K) of the same compound?
A: Its solubility (mole fraction) is 0.0699.

Q: And the solubility (mole fraction) (in ethanol, 303.15 K)?
A: The solubility (mole fraction) was 0.083.

Q: What about the solubility (mole fraction) (in ethanol, 308.15 K) of the same compound?
A: Its solubility (mole fraction) is 0.0979.

Q: And the solubility (mole fraction) (in ethanol, 313.15 K)?
A: Its solubility (mole fraction) is 0.116.

Q: What about the solubility (mole fraction) (in ethanol, 318.15 K) of the same compound?
A: Its solubility (mole fraction) is 0.135.

Q: What about the solubility (mole fraction) (in ethanol, 323.15 K) of the same compound?
A: Its solubility (mole fraction) is 0.158.

Q: And the solubility (mole fraction) (in ethyl acetate, 278.15 K)?
A: The solubility (mole fraction) was 0.0998.

Q: What about the solubility (mole fraction) (in ethyl acetate, 283.15 K) of the same compound?
A: Its solubility (mole fraction) is 0.109.

Q: And the solubility (mole fraction) (in ethyl acetate, 288.15 K)?
A: The solubility (mole fraction) was 0.119.

Q: And the solubility (mole fraction) (in ethyl acetate, 293.15 K)?
A: The solubility (mole fraction) was 0.131.

Q: What about the solubility (mole fraction) (in ethyl acetate, 298.15 K) of the same compound?
A: The solubility (mole fraction) was 0.143.

Q: And the solubility (mole fraction) (in ethyl acetate, 303.15 K)?
A: Its solubility (mole fraction) is 0.156.

Q: And the solubility (mole fraction) (in ethyl acetate, 308.15 K)?
A: Its solubility (mole fraction) is 0.17.

Q: And the solubility (mole fraction) (in ethyl acetate, 313.15 K)?
A: The solubility (mole fraction) was 0.187.

Q: And the solubility (mole fraction) (in ethyl acetate, 318.15 K)?
A: Its solubility (mole fraction) is 0.205.

Q: And the solubility (mole fraction) (in ethyl acetate, 323.15 K)?
A: Its solubility (mole fraction) is 0.225.

Q: What about the solubility (mole fraction) (in ethylene glycol, 278.15 K) of the same compound?
A: Its solubility (mole fraction) is 0.00089.

Q: What about the solubility (mole fraction) (in ethylene glycol, 283.15 K) of the same compound?
A: Its solubility (mole fraction) is 0.00116.

Q: And the solubility (mole fraction) (in ethylene glycol, 288.15 K)?
A: The solubility (mole fraction) was 0.0015.

Q: And the solubility (mole fraction) (in ethylene glycol, 293.15 K)?
A: Its solubility (mole fraction) is 0.00195.

Q: What about the solubility (mole fraction) (in ethylene glycol, 298.15 K) of the same compound?
A: The solubility (mole fraction) was 0.00241.

Q: And the solubility (mole fraction) (in ethylene glycol, 303.15 K)?
A: Its solubility (mole fraction) is 0.00308.

Q: And the solubility (mole fraction) (in ethylene glycol, 308.15 K)?
A: The solubility (mole fraction) was 0.0039.

Q: What about the solubility (mole fraction) (in ethylene glycol, 313.15 K) of the same compound?
A: Its solubility (mole fraction) is 0.00491.

Q: What about the solubility (mole fraction) (in ethylene glycol, 318.15 K) of the same compound?
A: The solubility (mole fraction) was 0.0061.

Q: What about the solubility (mole fraction) (in ethylene glycol, 323.15 K) of the same compound?
A: The solubility (mole fraction) was 0.00758.

Q: And the solubility (mole fraction) (in methanol, 278.15 K)?
A: The solubility (mole fraction) was 0.0296.

Q: And the solubility (mole fraction) (in methanol, 283.15 K)?
A: Its solubility (mole fraction) is 0.0362.

Q: What about the solubility (mole fraction) (in methanol, 288.15 K) of the same compound?
A: The solubility (mole fraction) was 0.0446.

Q: And the solubility (mole fraction) (in methanol, 293.15 K)?
A: The solubility (mole fraction) was 0.0532.

Q: And the solubility (mole fraction) (in methanol, 298.15 K)?
A: The solubility (mole fraction) was 0.065.

Q: And the solubility (mole fraction) (in methanol, 303.15 K)?
A: Its solubility (mole fraction) is 0.078.

Q: What about the solubility (mole fraction) (in methanol, 308.15 K) of the same compound?
A: Its solubility (mole fraction) is 0.0933.

Q: And the solubility (mole fraction) (in methanol, 313.15 K)?
A: Its solubility (mole fraction) is 0.11.

Q: What about the solubility (mole fraction) (in methanol, 318.15 K) of the same compound?
A: The solubility (mole fraction) was 0.131.

Q: What about the solubility (mole fraction) (in methanol, 323.15 K) of the same compound?
A: Its solubility (mole fraction) is 0.153.

Q: What about the solubility (mole fraction) (in methyl acetate, 278.15 K) of the same compound?
A: The solubility (mole fraction) was 0.0945.

Q: What about the solubility (mole fraction) (in methyl acetate, 283.15 K) of the same compound?
A: Its solubility (mole fraction) is 0.103.

Q: What about the solubility (mole fraction) (in methyl acetate, 288.15 K) of the same compound?
A: The solubility (mole fraction) was 0.113.

Q: And the solubility (mole fraction) (in methyl acetate, 293.15 K)?
A: The solubility (mole fraction) was 0.123.

Q: And the solubility (mole fraction) (in methyl acetate, 298.15 K)?
A: The solubility (mole fraction) was 0.135.

Q: And the solubility (mole fraction) (in methyl acetate, 303.15 K)?
A: The solubility (mole fraction) was 0.144.

Q: And the solubility (mole fraction) (in methyl acetate, 308.15 K)?
A: Its solubility (mole fraction) is 0.16.

Q: What about the solubility (mole fraction) (in methyl acetate, 313.15 K) of the same compound?
A: The solubility (mole fraction) was 0.175.

Q: And the solubility (mole fraction) (in methyl acetate, 318.15 K)?
A: The solubility (mole fraction) was 0.192.

Q: What about the solubility (mole fraction) (in methyl acetate, 323.15 K) of the same compound?
A: The solubility (mole fraction) was 0.21.
